# In patent publication US9962341B2, “Active pharmaceutical ingredient (API) comprising cannabinoids for use in the treatment of cancer” (GW Pharma Limited, priority 2014, dated 2018):
# Test system: LNCAP cells compared to DU145 cells
# Experiment: Cell viability, prostate cancer lines LNCAP and DU145 (potency comparison)
# Type: cell-based
# Details: media containing 10% FBS
# Procedure: (§1) The phytocannabinoids were tested alone and in various ratioed combinations in media containing final concentrations of 10% and 1% foetal bovine serum at 72 h for the breast and prostate cancer lines and 1% foetal bovine serum for the liver cancer line HepG2.
row,SMILES,fold more potent in LNCAP cells compared to DU145 cells [fold]
1,"CCCc1cc(O)c2c(c1)OC(C)(C)[C@@H]1CCC(C)=C[C@@H]21 [THCV, Tetrahydrocannabivarin]",5

# Test system: HepG2
# Experiment: Cell viability (CellTiter-Blue, 72 h), HepG2 liver cancer cells
# Type: cell-based
# Details: Homo sapiens, HepG2, 72 h, read-out: IC50 values
# Procedure: The cell lines tested in this Example were as follows. Breast cancer: MDA-MB-231; SK-BR3; and BT474. Liver cancer: HepG2.
# as §1
# Each tumour cell line was maintained in vitro in RPMI 1640+10% heat inactivated FBS and 2 mM L-glutamine (growth media) at 37° C. in 5% CO2 and humidified conditions. The cells were harvested, washed, re-suspended into growth medium and counted. The cells were re-suspended into assay media (RPMI 1640+5% heat inactivated FBS+ and 2 mM L-glutamine) at 8×104-2×10^5 cells/ml (dependent upon cell type) and plated into the middle 240 wells of 384 well tissue culture plates (Corning CellBind, black-wall plates) 12.5 μl/well aliquots; 62.5 μl of growth media was aliquoted into the outer wells. There were 4 plates for each cell line. The plates were incubated overnight at 37° C., in 5% humidified CO2.
# The phytocannabinoid test compounds were prepared in 100% DMSO vehicle at a stock concentration of 10 mM.
# Starting with the 10 mM stock, the compounds were diluted to 125 μM in FBS-free growth media.
# These were diluted in FBS-free growth media to 125 μM before serial dilution.
# 5 volumes of CBD 10 mM stock was added to 1 volume of the other agent (also at 10 mM) and 4 volumes of DMSO. This made a final concentration of 5 mM:1 mM. This was then diluted in FBS-free growth media so the top concentration of CBD would be 125 μM (before serial dilution). Each compound and compound combination stock was serially diluted in FBS-free growth media (containing 1.25% v/v DMSO) from 125 μM to 41.7, 13.89, 4.63, 1.54, 0.514, 0.171, 0.057 and 0.019 μM (1.25× final assay concentrations). Vehicle was prepared at equivalent dilutions in assay media. The top final concentration of compound in the assay was always 100 μM so CBD5:1CBG was 100 μM CBD and 20 μM CBG.
# The plates were incubated for 72 h at 37° C. in 5% humidified CO2. To develop the plates, at 72 h, 10 μl of CellTiter-Blue™ reagent was added to each test/blank well. The plates were incubated at 37° C., 5% humidified CO2. Fluorescence was measured using a Flex II Station plate reader (570 nm excitation wavelength, 600 nm emission wavelength, 590 nm cut-off) after 3 h.
# The raw data values expressed in relative fluorescent units were normalised to the vehicle for each individual plate and any reduction in fluorescence indicated a decrease in viability.
# The data were analysed in GraphPad PRISM using a non-linear sigmoidal plot with variable slope (asymmetric five point linear regression) and where possible an IC50 value for each single compound and combination was generated.
row,SMILES,IC50 [µM]
1,"C=C(C)[C@@H]1CCC(C)=C[C@H]1c1c(O)cc(CCCCC)cc1O [CBD, Cannabidiol]",3.3
2,"C=C(C)[C@@H]1CCC(C)=C[C@H]1c1c(O)cc(CCCCC)c(C(=O)O)c1O [CBDA, Cannabidiolic acid]",7.4
3,"CCCCCc1cc(O)c(C/C=C(\C)CCC=C(C)C)c(O)c1 [CBG, Cannabigerol]",3.7
4,"CCCCCc1cc(O)c(C/C=C(\C)CCC=C(C)C)c(O)c1C(=O)O [CBGA, Cannabigerolic acid]",9.3
5,"CCCc1cc(O)c2c(c1)OC(C)(C)[C@@H]1CCC(C)=C[C@@H]21 [THCV, Tetrahydrocannabivarin]",7.2
